Results on two molecules are retold here after article PMC12814185, “Receptor-Mediated Shuttling of a D‑Amino Acid Peptide Achieves High Nanomolar Cytosolic Concentrations” (Journal of the American Chemical Society, 2025).

The test system of data set [1] is HEK293 cells. In words: Live cell fluorescence microscopy of peptide internalization, cells without CMKLR1. As to conditions: 1 μM Cy5-labeled peptide, 6 h. Type of data set: cell-based. As for the experimental part:
2 Internalization of cyclic chemerin-9 conjugates. Live cell fluorescence microscopy of HEK293 and HEK293 cells stably expressed CMKLR1-eYFP. Cells were incubated with 1 μM Cy5-labeled peptide for 6 h before imaging. Blue = Hoechst33342, yellow = CMKLR1-eYFP, magenta = Cy5-peptide, scale bar ≙ 10 μm. […]
Salt Solution (HBSS, Biowest), pH 7.5) for 1 h. […]
Experiments were performed in technical duplicates and at least […]
HEK293 and HEK293_CMKLR1-eYFP cells were seeded at 15,000 cells per well into poly-ᴅ-lysine coated 96-well plates (black µCLEAR, Greiner). The next day, dilutions of the Cy5 -labeled peptides or Nutlin-3a […]
Cells were then washed and a resazurin-based cell viability […]
assay was performed. […]
Experiments […]
were performed in technical triplicates and at least twice.
Peptide internalization was evaluated by fluorescence microscopy. HEK293 and stably transfected […]
microscopy slides (ibidi). The next day, 1 µM Cy5-labeled peptides in cell culture medium were added to the cells and incubated for 6 h.
FluoroBriteTM DMEM (Gibco) with 10% FBS, 25 mM HEPES (pH 7.4) before imaging on an AxioVision Observer.Z1 microscope equipped with an apotome imaging system, an HXP120C light source, and a C-Apochromat 63x/1.20 W objective. All shown microscopy images are representative of at least two

The test system of data set [2] is MDA-MB-231 cells. Put plainly: Fluorescence correlation spectroscopy (FCS) in the cytosol. The format is cell-based. The note with it: 72 h. An excerpt: Fluorescence correlation spectroscopy (FCS) […] Prior to measurements, the correction collar of the objective […] 1 τ 1 1 (Equation 2) G(τ) = ∗ (1 - […] 1 + ( τ )α √1 + S2 ∗ ( τ )α τD τD 4
Data set [3] is described as follows: FCS diffusion coefficient in solution. As to conditions: 10 nM in Fluorobrite DMEM, 22 °C, mean and SD of three independent measurements. Type of data set: physicochemical. An excerpt:
Fluorescence correlation spectroscopy (FCS) […] Nuclei were […] HEPES (pH 7.4). […] Prior to measurements, the correction collar of the objective […] Repeats […] is the autocorrelation at τ, N the average number of molecules in the focal volume, τD the average diffusion time through the focal volume, α the anomalous coefficient describing the hindered diffusion, S the shape factor of the focal volume, τE the time domain of the additional exponential term and E the fraction of molecules in the exponential term. […] [nM] [nM] […] 100 23.5 ± 40.2 11.9 *÷ 3.0 10.2 (5.2-32.1) 1000 138 ± 122 87.7 *÷ 3.0 98.8 (37.8-199) 10000 308 ± 257 239 *÷ 2.0 228 (157-435) […] Table S8. Predicted and measured diffusion coefficients D in solution. Measurements were performed with 10 nM of fluorescent compounds in Fluorobrite […] Data from three independent measurements. Mean and standard deviation are shown. name molecular predicted D measured […]] sulfo-Cy5 778.0 - 341.6 (reference) […] Intracellular cleavage product 2401.8 244.7 - 3Cy […]9 4475.1 175.0 138.5 ± 5.1 Intracellular cleavage product 2733.2 234.4 - 18

Data set [4] deals with T1, recombinant human GST-MDM2 (Homo sapiens, UniProt Q00987).
T1 construct: purchased R&D Systems
In words: Fluorescence polarization binding of Cy5-labeled peptides to MDM2. The note with it: 20 nM Cy5-labeled peptide, FP buffer pH 7.4, 30 min room temperature; performed twice in technical triplicates.
Description: (B) Fluorescence polarization measurement of 20 nM Cy5-labeled peptides binding to recombinant human GST-MDM2.
20 nM of Cy5-labeled peptides were added to dilutions of human MDM2 (Recombinant Human GST -
MDM2/HDM2, R&D Systems) in FP buffer (50 mM tris(hydroxymethyl)aminomethane (Tris, Carl Roth),
150 mM sodium chloride (Sigma), 1 mM EDTA (Sigma), 0.01% (v/v) Tween20 (Sigma), pH 7.4) and
incubated for 30 min at room temperature. Fluorescence polarization was then measured in a Tecan
Spark plate reader (λex = 640 nm, λem = 670 nm). Measurements were performed twice in technical
triplicates. Data was then fit with Prism 10 (GraphPad) using non-linear regression with the following
solution to the quadratic binding equation 1 to obtain Kd:
𝐹𝑃 = 𝐹𝑃 + (𝐹𝑃 − 𝐹𝑃 ) ∗ 𝑐 + 𝑐 + 𝐾 − 𝑝𝑒𝑝𝑡𝑖𝑑𝑒 𝑀𝐷𝑀2 𝑑 𝑝𝑒𝑝𝑡𝑖𝑑𝑒 𝑀𝐷𝑀2

Data set [5] deals with T2, CMKLR1 (Homo sapiens, UniProt Q99788).
T2 construct: expressed in transfected cells; host or cells: COS-7 (stably transfected, CMKLR1-eYFP + Δ6Gαqi4myr)
T2 sequence (Q99788 1-373): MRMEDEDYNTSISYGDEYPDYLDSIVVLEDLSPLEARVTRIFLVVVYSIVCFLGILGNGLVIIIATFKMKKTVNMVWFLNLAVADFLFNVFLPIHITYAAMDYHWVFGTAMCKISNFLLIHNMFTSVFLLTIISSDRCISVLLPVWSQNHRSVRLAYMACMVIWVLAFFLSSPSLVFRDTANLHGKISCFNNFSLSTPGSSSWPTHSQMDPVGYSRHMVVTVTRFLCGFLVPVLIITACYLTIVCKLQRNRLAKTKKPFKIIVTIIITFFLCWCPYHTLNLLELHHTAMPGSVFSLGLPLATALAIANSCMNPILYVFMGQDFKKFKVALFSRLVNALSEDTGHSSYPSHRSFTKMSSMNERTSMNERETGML
In words: Ca2+ flux assay in COS-7_CMKLR1-eYFP_Δ6Gαqi4myr cells. The format is cell-based. As to conditions: maximum signal over baseline normalized to peptide 1, at least two independent experiments in duplicate. (In general: A change in cytosolic calcium serves as a functional read-out for many receptors and channels.)
Description: (C) Activity of the cyclic chemerin-9 (cC9) derivatives at CMKLR1 tested in a Ca^2+ flux assay. Data points represent the mean ± SEM of at least two independent experiments performed in duplicate.
Calcium flux assay was performed with cells expressing CMKLR1 and the chimeric G protein Δ6Gαqi4myr.
The stably transfected COS-7_CMKLR1-eYFP_ Δ6Gαqi4myr cells were seeded at 25,000 cells per well into poly-ᴅ-lysine-coated 96-well plates (black µCLEAR, Greiner). The next day, cells were incubated with 2.3 µM Fluo-2-AM (Abcam) and 0.06% (v/v) Pluronic-F127 (Sigma) in assay buffer (2.5 mM probenecid (Sigma), 20 mM 4-(2-hydroxyethyl)-1-piperazineethanesulfonic acid (HEPES, Sigma) in Hanks' Balanced Salt Solution (HBSS, Biowest), pH 7.5) for 1 h. This solution was replaced by assay buffer, and basal Ca2+ signal (λex = 485 nm, λem = 525 nm) was measured for 20 s with a Flexstation 3 plate reader (Molecular Devices). Peptide dilutions were added, and the Ca2+ response was measured for 40 s. The maximum signal over baseline was calculated and normalized to peptide 1 (N3-cC9). Non-linear regression was performed using Prism 10 (GraphPad). Experiments were performed in technical duplicates and at least

Like-named read-outs stand apart in the source and are kept apart here. Where a SMILES comes first, the peptide text is derived from it. Bridges are numbered along the chain shown (N, C = ends). Roman numbers before positions name the chains, in order. Triazole bridges read from a SMILES are 1,4-linked. Where no end group is shown, it is not given here. Side-chain parts run from the residue outwards. [ ]: non-standard residue; d: D form. The star is where a group is joined. X2 = CN1C(=C/C=C/C=C/C2=[N+](CCCCCC(=O)*)c3ccc(S(=O)(=O)[O-])cc3C2(C)C)C(C)(C)c2cc(S(=O)(=O)O)ccc21; X1 = CN1C(=CC=CC=CC2=[N+](CCCCCC(=O)*)c3ccc(S(=O)(=O)[O-])cc3C2(C)C)C(C)(C)c2cc(S(=O)(=O)O)ccc21; Lys(N3) = [N-]=[N+]=NCCCC[C@H](N)C(=O)O; Cit = NC(=O)NCCC[C@H](N)C(=O)O; d(hCys) = N[C@H](CCS)C(=O)O; PEG3 = NCCOCCOCCOCCC(=O)O; Pra = C#CC[C@H](N)C(=O)O

The term Kd denotes the constant that tells how readily two partners part at equilibrium.

T1 sequence (Q00987 whole entry): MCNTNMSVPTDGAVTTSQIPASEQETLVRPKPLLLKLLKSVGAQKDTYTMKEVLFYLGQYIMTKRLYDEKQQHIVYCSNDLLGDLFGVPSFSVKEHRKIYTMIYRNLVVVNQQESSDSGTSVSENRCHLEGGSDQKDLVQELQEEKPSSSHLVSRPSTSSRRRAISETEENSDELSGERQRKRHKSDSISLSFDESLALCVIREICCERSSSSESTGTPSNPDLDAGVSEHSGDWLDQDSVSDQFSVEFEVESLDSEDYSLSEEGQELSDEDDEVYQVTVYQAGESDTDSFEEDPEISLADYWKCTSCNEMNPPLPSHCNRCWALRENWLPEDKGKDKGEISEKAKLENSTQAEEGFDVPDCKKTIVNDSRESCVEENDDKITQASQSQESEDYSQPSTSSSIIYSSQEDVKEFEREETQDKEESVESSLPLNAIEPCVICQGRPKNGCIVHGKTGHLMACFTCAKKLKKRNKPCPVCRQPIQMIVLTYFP

Consider `CC(=O)N[C@@H](CCCCn1cc(C[C@H](NC(=O)CCOCCOCCOCCNC(=O)[C@H](CCCNC(N)=O)NC(=O)[C@@H](NC(=O)[C@H](CCC(=O)O)NC(=O)CNC(=O)CNC(=O)[C@@H](CCCNC(=N)N)NC(=O)[C@@H](CC(C)C)NC(=O)[C@@H](CC(C)C)NC(=O)[C@@H](C)NC(=O)[C@@H](CCC(=O)O)NC(=O)[C@@H](Cc2ccccc2)NC(=O)[C@@H](C)NC(=O)[C@@H](CC(C)C)NC(=O)[C@H]2CCCN2C(=O)[C@@H](Cc2c[nH]c3ccccc23)NC(=O)[C@@H](Cc2c[nH]c3ccccc23)NC(=O)[C@@H](CC(=O)O)NC(=O)CCOCCOCCOCCNC(=O)CCCCC[N+]2=C(/C=C/C=C/C=C3N(C)c4ccc(S(=O)(=O)O)cc4C3(C)C)C(C)(C)c3cc(S(=O)(=O)[O-])ccc32)C(C)C)C(N)=O)nn1)C(=O)N[C@@H](Cc1ccc(O)cc1)C(=O)N[C@@H](Cc1ccccc1)C(=O)N1CCC[C@H]1C(=O)N[C@@H]1CCSSC[C@@H](C(=O)O)NC(=O)[C@H](Cc2ccccc2)NC(=O)[C@H](C)NC(=O)[C@H](Cc2ccccc2)NC(=O)[C@H](CCC(N)=O)NC1=O` [2Cy] (I: {X2-PEG3}-[dD][dW][dW][dP][dL][dA][dF][dE][dA][dL][dL][dR]GGEV[Cit][PEG3][Pra]-NH2 / II: Ac-[Lys(N3)]YFP[d(hCys)]QFAFC-OH; triazole I:19-II:1; disulfide II:5-II:10), for which the internalization entry in data set [1] is “did not internalize”. For the same molecule, in data set [2], the “cytosolic FCS measurement” value is given as “no successful measurements were obtained”. In addition, the “measured D in solution” value in data set [3] worked out at 154.2 ± 4.3 µm2/s.
As for “I: GSVSHHHHHHGGHHHH[PEG3][dK]([PEG3-X1])[dD][dW][dW][dP][dL][dA][dF][dE][dA][dL][dL][dR]GEV[Cit][PEG3][Pra]-NH2 / II: Ac-[Lys(N3)]YFP[d(hCys)]QFAFC-OH (triazole I:36-II:1; disulfide II:5-II:10) [3Cy]”, the dissociation constant Kd in data set [4] turned out to be 90 nM. Moreover, the EC50 is 220 nM in data set [5] (read-out: EC50) and 219 nM in data set [5] (read-out: pEC50 ± SEM (converted)). Further, the internalization result in data set [1] is recorded as “very faint intracellular signals”. The “cytosolic FCS measurement” value in data set [2] is “no successful measurements were obtained”. In addition, the “measured D in solution” value in data set [3] amounted to 138.5 ± 5.1 µm2/s.
